Test results from US20170066717A1, “NEW PHENYLAZETIDINECARBOXYLATE OR -CARBOXAMIDE COMPOUNDS” (INVENTIVA, priority 2014, published 2017).

Legend:
NURR-1/RXRα = biological target: T1, NURR-1/RXRα (Homo sapiens, UniProt P19793); test: Transactivation test, NURR-1-Gal4/RXRα, luciferase reporter in Cos-7 cells; type: cell-based; conditions: for EC50: Cos-7 cells, NURR-1-Gal4/RXRα, luciferase reporter, read-out: hNurr1_RXRaFL EC50; for Emax: COS-7, induction level relative to reference XCT0135908 at 2×10^−5 M (=100%), read-out: hNurr1_RXRaFL Emax (%)
T1 construct: expressed in transfected cells; host or cells: Cos-7 cells

NURR-1/RXRγ = biological target: T2, NURR-1/RXRγ (Homo sapiens, UniProt P48443); test: Transactivation test, NURR-1-Gal4/RXRγ, luciferase reporter in Cos-7 cells; type: cell-based; conditions: for EC50: Cos-7 cells, NURR-1-Gal4/RXRγ, luciferase reporter, read-out: hNurr1_RXRgFL EC50; for Emax: COS-7, induction level relative to reference XCT0135908 at 2×10^−5 M (=100%), read-out: hNurr1_RXRgFL Emax (%)
T2 construct: expressed in transfected cells; host or cells: Cos-7 cells

[1] = Plasma pharmacokinetics in mice after oral administration; type: in vivo; conditions: mouse, male C57/Bl6 mice, oral 10 mg/kg; for AUC: sampling 15 min to 7 h, log-linear trapezoidal method, read-out: AUCplasma; for Cmax: suspension in 1% methylcellulose/0.1% Poloxamer 188
Procedure: (§1) Three series of in vivo tests were carried out with compounds representative of the invention, for the purpose of determining their pharmacokinetic plasma profile and their brain penetration.
1. Study of the Plasma Phannacokinectis in Mice After Oral Administration
Male C57/B16 mice (25-30 g) originating from the establishment Janvier, Le Genest-St-Isle, France were used for this study (9 mice per dose). The animals were fed with standard feed for rodents (Purina Mills, St. Louis, Mo.), placed in cages and subjected to light/darkness cycles of 12 h/12 h, the temperature of the room being maintained at 22±2° C. and the humidity level at 55±10%.
The mice were not deprived food before the administration. Water was provided at will throughout the study. The test compound was admistered orally at 10 mg/kg. For the oral administration at 10 mg/kg, the animals were green, by gavage, 10 mL/kg of a suspension of the test compound, prepared in 1% methylcellulose, 400 cps/0.1% Poloxamer 188/water.
The animals were sacrificed under anesthesia at times 15 min, 30 min, 1 h, 3 h and 7 h after gavage. The blood was collected at each time, and from each animal sacrificed 0.5 mL of blood collected in 1.5 mL tubes containing 20 μL of evaporated anticoagulant (solution of sodium heparinate at 1000 IU/mL) was centrifuged at 4500 g for 3 min in order to obtain approximately 200 μL of plasma. The plasma was divided up into 2 aliquots of 70 μL minimum, which were stoted at −20° C. until they were treated by protein precipitation and then analysis by liquid chromatography coupled to tandem mass spectrometry (LC-MS/MS) in order to quantify the compound tested.
The pharmacokinetic plasma parameters in the mice after oral administration were determined using a non-compartmental approach with the Phoenix WinNonLin software. The area under the curve (AUC0-1) was determined bv the log-linear trapezoidal method. The tesults are brought together in the following table.

[2] = Brain penetration in rats after intravenous administration; type: in vivo; conditions: rat; for Kp at 4 h: male, Wistar, intravenous, 4 mg/kg, ratio of Cmax brain to Cmax plasma after the 4 hours of infusion, rats, read-out: Kp (partition coefficient between the brain and the plasma); for Cmax at 4 h: male Wistar rats, 4 mg/kg iv infusion into the jugular vein for 4 hours, plasma at end of infusion
Procedure: as §1
2. Study of the Brain Penetration in Rats After Intravenous Administration
Male Wistar rats (250-300 g) originating from the establishment Janvier, Le Genest-St-Isle, France were used for this study (4 rats per study). The animals were fed with standard feed for rodents (Purina Mills, St. Louis, Mo.), placed in cages and subjected to light/darkness cycles of 12 h/12 h, the room temperature being maintained at 22±2° C. and the humidity level at 55±10%. The rats were not deprived food before the administration. Water was provided at will throughout the study.
The test compound was administered intravenously at 4 mg/kg by infusion into the jugular vein for 4 hours. For the intravenous administration, the animals were infused with 12 mL/kg of a solution of the test compound, prepared in 2% Cremophor EL/0.9% NaCl.
The animals were sacrificed under anesthesia after 4 hours of infusion. The blood and the brain were collected from each sacrificed animal 0.5 mL of blood collected in 1.5 mL tubes containing 20 μL of evaporated anticoagulant (solution of sodium heparinate at 1000 IU/mL) was centrifuged at 4500 g for 3 min in order to obtain approximately 200 μL of plasma. The plasma was divided up into 2 aliquots of 70 μL minimum, which were stored at −20° C. until they were treated by protein precipitation and then analysis by liquid chromatography coupled to tandem mass spectrometry (LC-MS/MS) in order to quantify the compound tested.
The brains were immersed in liquid nitrogen directly after they were removed, then stored at −20° C. for analysis. The brains were then ground in the presence of an aqueous/organic solvent mixture in order to obtain a homogenate. These homogenates were then centrifuged and the compound tested was extracted from the supernatant obtained, by liquid-liquid extraction, and then quantified by LC-MS/MS.
The brain penetration in the rats is represented by the Kp, which is the partition coefficient between the brain and the plasma. It is calculated by the ratio of the concentration measured in the brain (Cmax brain) and the plasma (Cmax plasma) after the 4 hours of infusion.

[3] = system: dopaminergic neurons of primary culture of rat embryo mesencephalon treated with MPP+; test: Neuroprotection in primary culture of rat embryo mesencephalon treated with MPP+ (count of tyrosine hydroxylase expressing cells); type: cell-based; conditions: recombinant human BDNF 10 ng/mL = 100%, 2 days with MPP+
Procedure: Another in vitro test was carried out with the compounds according to the invention, for the purpose of verifying that the molecules indeed have the expected neuroprotective effect in vitro.
The compounds were tested in a model of primary culture of rat embryo mesencephalon treated with 1-methyl-4-phenylpyridinium (MPP+), which is the active metabolite of 1-methyl-4-phenyl-1,2,3,6-tetrahydropyridine (MPTP). MPP+ enters into dopananergic neurons via the dopamine transporter and causes the death of these dopaminergic neurons. The following protocol was used.
Gestating female rats (15 days of gestation) were euthanized and the rat embryos were removed. The mesencephalons were removed. The tissue was then dissociated mechanically and by using trypsin. The cells collected after centrifugation were distributed into 96-well plates and left to stand for 5 days. The culture conditions made it possible to obtain a cell layer composed of neurons (dopaminergic and others) and astrocytes. On the 6th day, the cells were optionally treated with MPP+ in the presence or absence of test compound. After 2 days of incubation, the cells were fixed and various cell labellings were carried out; staining of the nuclei with the Hoechst fluorescent label and immunolabelling of tyrosine hydroxylase. The cells expressing tyrosine hydroxylase were counted using an image analyzer coupled to an optical microscope.
Recombinant human BDNF trophic factor (10 ng/mL) was used as reference. The activities of the compounds are given as percentages of activity relative to the BDNF reference, the activity of which is arbitrarily defined as being equal to 100%.

[4] = induction level relative to reference XCT0135908 at 2×10^−5 M (=100%)

T1 sequence (P19793 whole entry, the tested form may be a part): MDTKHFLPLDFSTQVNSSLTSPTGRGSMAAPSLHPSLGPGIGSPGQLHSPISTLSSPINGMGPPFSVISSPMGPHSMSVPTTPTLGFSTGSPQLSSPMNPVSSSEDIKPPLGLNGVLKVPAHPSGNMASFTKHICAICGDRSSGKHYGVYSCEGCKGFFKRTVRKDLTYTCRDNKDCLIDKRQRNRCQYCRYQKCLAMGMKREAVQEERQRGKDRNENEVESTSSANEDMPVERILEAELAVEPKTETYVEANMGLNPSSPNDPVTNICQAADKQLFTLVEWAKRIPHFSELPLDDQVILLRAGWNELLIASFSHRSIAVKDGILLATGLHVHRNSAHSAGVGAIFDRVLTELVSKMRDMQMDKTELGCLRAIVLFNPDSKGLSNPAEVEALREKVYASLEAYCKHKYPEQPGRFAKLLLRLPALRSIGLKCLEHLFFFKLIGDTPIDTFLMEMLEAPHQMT
T1 sequence (P43354 whole entry partner, the tested form may be a part): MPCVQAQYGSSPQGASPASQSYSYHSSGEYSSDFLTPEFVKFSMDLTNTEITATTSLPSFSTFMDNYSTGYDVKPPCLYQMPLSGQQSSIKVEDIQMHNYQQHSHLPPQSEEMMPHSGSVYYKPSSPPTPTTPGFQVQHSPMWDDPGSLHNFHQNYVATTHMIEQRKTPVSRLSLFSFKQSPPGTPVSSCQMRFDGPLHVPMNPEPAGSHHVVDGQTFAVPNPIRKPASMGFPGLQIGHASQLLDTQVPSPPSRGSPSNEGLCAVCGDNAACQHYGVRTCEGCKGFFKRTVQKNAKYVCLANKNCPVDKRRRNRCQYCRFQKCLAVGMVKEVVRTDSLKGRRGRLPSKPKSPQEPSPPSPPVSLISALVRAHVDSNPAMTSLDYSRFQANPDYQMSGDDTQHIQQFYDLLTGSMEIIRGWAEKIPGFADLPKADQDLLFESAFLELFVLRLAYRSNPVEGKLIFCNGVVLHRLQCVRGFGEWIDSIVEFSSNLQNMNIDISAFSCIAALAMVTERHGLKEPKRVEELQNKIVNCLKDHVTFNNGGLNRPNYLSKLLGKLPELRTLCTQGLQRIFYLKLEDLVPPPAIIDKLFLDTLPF
T1 sequence (P04386 1-147 partner limits assumed): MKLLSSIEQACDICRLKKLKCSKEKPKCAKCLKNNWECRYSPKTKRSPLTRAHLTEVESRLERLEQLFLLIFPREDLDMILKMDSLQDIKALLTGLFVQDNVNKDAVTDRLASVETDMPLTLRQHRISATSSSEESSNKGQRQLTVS
T2 sequence (P48443 whole entry, the tested form may be a part): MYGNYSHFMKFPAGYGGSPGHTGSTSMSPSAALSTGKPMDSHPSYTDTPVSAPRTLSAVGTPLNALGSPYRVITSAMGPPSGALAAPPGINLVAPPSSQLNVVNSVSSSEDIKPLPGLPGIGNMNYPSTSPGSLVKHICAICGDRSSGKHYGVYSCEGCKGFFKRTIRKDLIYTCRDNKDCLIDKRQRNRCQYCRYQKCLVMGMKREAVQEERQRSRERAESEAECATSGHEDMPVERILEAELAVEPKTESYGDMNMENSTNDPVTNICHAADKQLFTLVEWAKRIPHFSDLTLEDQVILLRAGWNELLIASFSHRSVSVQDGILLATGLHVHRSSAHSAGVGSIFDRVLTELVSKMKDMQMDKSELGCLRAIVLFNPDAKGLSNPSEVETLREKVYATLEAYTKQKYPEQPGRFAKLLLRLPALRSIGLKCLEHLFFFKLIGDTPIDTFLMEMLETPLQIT
T2 sequence (P43354 whole entry partner, the tested form may be a part): as the sequence (P43354 whole entry partner, the tested form may be a part) above
T2 sequence (P04386 1-147 partner limits assumed): as the sequence (P04386 1-147 partner limits assumed) above

hNurr1_RXRaFL Emax (%) (NURR-1/RXRα; [4])	hNurr1_RXRgFL Emax (%) (NURR-1/RXRγ; [4])	AUC [1] [ng·h/mL]	Cmax [1] [ng/mL]	Kp at 4 h [2]	Cmax at 4 h [2] [ng/mL]	melting point [°C]	Structure (SMILES)	EC50 (NURR-1/RXRα) [nM]	EC50 (NURR-1/RXRγ) [nM]	Emax (NURR-1/RXRα) [%]	Emax (NURR-1/RXRγ) [%]	percentage of activity relative to the BDNF reference ([3]; compound 1 μM) [%]	percentage of activity relative to the BDNF reference ([3]; compound 10 μM) [%]
97	95	48200	15200	0.13	5800	68 to 74	CC(C)CC1Oc2cc(C(F)(F)F)ccc2N(c2cccc(N3CC(C(=O)O)C3)c2)C1=O (single isomer, unassigned; isomer 1) [Example 246-1, 1-[3-[2-isobutyl-3-oxo-7-(trifluoromethyl)-1,4-benzoxazin-4-yl]phenyl]azetidine-3-carboxylate acid, isomer 1]	7	50	–	–	–	–
–	–	–	–	–	–	–	Cc1cn(-c2cccc(N3CC(C(=O)NCCCO)C3)c2)c2ccc(C(F)(F)F)cc12 [Example 154, N-(3-hydroxypropyl)-1-[3-[3-methyl-5-(trifluoromethyl)indol-1-yl]phenyl]azetidine-3-carboxamide]	< 1	3	111	104	67	105
–	–	–	–	–	–	–	Cc1cn(-c2cccc(N3CC(C(=O)NCCc4c[nH]cn4)C3)c2)c2ccc(C(F)(F)F)cc12 [Example 155, N-[2-(1H-imidazol-4-yl)ethyl]-1-[3-[3-methyl-5-(trifluoromethyl)indol-1yl]phenyl]azetidine-3-carboxamide]	4	5	123	116	49	94
–	–	–	–	–	–	–	Cc1cn(-c2cccc(N3CC(C(=O)NCCOCCO)C3)c2)c2ccc(C(F)(F)F)cc12 [Example 158, N-[2-(2-hydroxethoxy)ethyl]-1-[3-[3-methyl-5-(trifluoromethyl)indol-1-yl]phenyl]azetidine-3-carboxamide]	2	4	92	125	54	77
–	–	–	–	–	–	–	Cc1cn(-c2cccc(N3CC(C(=O)NCCC#N)C3)c2)c2ccc(C(F)(F)F)cc12 [Example 159, N-(2-cyanoethyl)-1-[3-[3-methyl-5-(trifluoromethyl)indol-1-yl]phenyl]azetidine-3-carboxamide]	3	6	115	110	73	101
–	–	–	–	–	–	–	Cc1cn(-c2cccc(N3CC(C(=O)NCCCn4ccnc4)C3)c2)c2ccc(C(F)(F)F)cc12 [Example 160]	15	31	115	124	54	79
–	–	–	–	–	–	–	COCCNC(=O)C1CN(c2cccc(-n3cc(C)c4cc(C(F)(F)F)ccc43)c2)C1 [Example 173, N-(2-methoxyethyl)-1-[3-[3-methyl-5-(trifluoromethyly)indol-1-yl]phenyl]azetidine-3-carboxamide]	< 1	5	103	102	18	72
–	–	12100	6420	0.15	932	61 to 64	CCC1COc2cc(C(F)(F)F)cc(-c3cccc(N4CC(C(=O)O)C4)c3)c2N1 (stereo not drawn) [Example 186, 1-[3-[3-ethyl-7-(trifluoromethyl)-3.4-dihydro-2H-1,4-benzoxazin-5-yl]phenyl]azetidine-3-carboxylic acid]	3	11	102	94	–	–
–	–	5190	2740	1.27	1360	205 to 213	CC1(C)CNc2c(cc(C(C)(C)C)cc2-c2cccc(N3CC(C(=O)[O-])C3)c2)O1.[Na+] [Example 187, sodium 1-[3-(7-tert-butyl-2,2-dimethyl-3,4-dihydro-1,4-benzoxazin-5-yl)phenyl]azetidine-3-carboxylate]	5	23	91	80	–	–
–	–	30300	10200	–	–	61 to 74	CCC1COc2cc(C(F)(F)F)ccc2N1c1cccc(N2CC(C(=O)O)C2)c1 (stereo not drawn) [Example 217, 1-[3-[3-ethyl-7-(trifluoromethyl)-2,3-dihydro-1,4-benzoxazin-4-yl]phenyl]azetidine-3-carboxylic acid]	14	46	109	125	–	–
–	–	576	252	3.06	337	–	CNC(=O)C1CN(c2cccc(N3CC(C)(C)Oc4cc(C(F)(F)F)ccc43)c2)C1 [Example 274, 1-[3-[2,2-dimethyl-7-(trifluoromethyl)3H-1,4-nemzoxazin-4-yl]phenyl]-N-methylazetidine-3-carboxamide]	6	8	110	110	–	–
